Measured values published in US20100216876A1, “ANTIDIARRHETIC COMPOSITION, PRODUCT CONTAINING THE SAME AND METHOD OF PREVENTING DIAHHREA” (priority 2007, published 2010).

Test system: intestinal Cl− secretion
Assay: Short-circuit current (Isc) measurement of cecum mucosa sample in Ussing chamber after forskolin
Assay type: cell-based, mouse
Description: A sample of large-intestinal mucosa was prepared in the following manner. A mouse was killed by cervical vertebra dislocation. After abdominal incision, the cecum was excised by cutting the boundary parts of the cecum with the small intestine and the large intestine. The cecum was cut open with scissors into a sheet. In order to completely remove the contents of the cecum, the cecum was pinched with tweezers and washed with a buffered solution. Then, a substitution fluid was placed in a petri dish covered with rubber, and the cecum was attached thereon with the serosa side up. Under conditions in which the buffered solution-in the petri dish was always aerated with 95% O2/5% CO2, the muscle layer was peeled using tweezers, and a sample composed of mucosa and submucosa was produced. The sample was divided into four pieces for the experiment.
Electrical analysis was carried out using this sample. FIG. 1 is a diagram showing an embodiment of measurement of short-circuit current (Isc) in Ussing chamber. The mucosa sample was placed between two Ussing-type chambers (window area: 0.2 cm^2) containing 5 ml of buffered solution. For the measurement of the electrical potential difference, a pair of calomel electrodes was connected to each chamber through a 1MKCl/2% agar salt bridge. For passing current, Ag/AgGl electrodes connected through a 1MNaCl/2% agar salt bridge were mounted. These electrodes were connected to a voltage clamp apparatus, and the short-circuit current (Isc) was measured. As for Isc, the current flowing from the mucosa side to the serosa side was positive.
The solutions to be administered were prepared as stock solutions so that the concentration of each solution was 1,000 times higher than the desired final concentration.

[1] = 20 μM on the serosa side after forskolin
[2] = 50 μM on the serosa side after forskolin

Compound	Isc decrease [1]	Isc decrease [2]	Isc decrease (150 μM on the serosa side after forskolin)	action on Isc compared with menthol [1]	dose dependence of the Isc inhibitory effect (serosa side after forskolin)
CC(C)[C@@H]1CC[C@@H](C)C[C@H]1OCCCO	about 50 μA/cm^2	about 70 μA/cm^2	–	–	–
CC(C)[C@@H]1CC[C@@H](C)C[C@H]1OCCO [2-(l-menthoxy)ethanol]	about 10 μA/cm^2	–	about 70 μA/cm^2	–	–
CC(C)[C@@H]1CC[C@@H](C)C[C@H]1OCC(C)(O)CO (stereo partly drawn) [2-methyl-3-(l-menthoxy)propane-1,2-diol]	about 100 μA/cm^2	–	–	almost equal to the administration of 500 μM of menthol	dose dependence was observed at doses up to 50 μM
CC1CCC(C(C)C)C(OCC(O)CO)C1 (stereo not drawn) [3-(l-menthoxy)propane-1,2-diol]	about 50 μA/cm^2	about 70 μA/cm^2	–	–	–
